Results: patent US9120805B2, “Substituted pyrrolo[1,2-A]pyrazin-1-ones and pyrazolo[1,5-A]pyrazin-4-ones as inhibitors of tankyrase and poly(ADP-ribose)polymerase activity” (Merck Patent GmbH, priority 2012, dated 2015)

What was measured:
[1] = target: T1, GST-tagged Tankyrase-1 (1023-1327 aa) (Homo sapiens, UniProt O95271); test: Tankyrase 1 autoparsylation assay (HTRF enzyme assay); format: biochemical
T1 construct: GST-tagged Tankyrase-1 (1023-1327 aa)
Method: (§1) Biochemical Activity Testing of Tankyrase 1 and 2: Autoparsylation Assay
(§2) The autoparsylation assay is run in two steps: the enzymatic reaction in which GST-tagged Tankyrase-1, resp Tankyrase-2 transferred biotinylated ADP-ribose to itself from biotinylated NAD as co-substrate and the detection reaction where a time resolved FRET between cryptate labelled anti-GST bound to the GST tag of the enzyme and Xlent® labelled-streptavidin bound the biotin-parsylation residue is analysed. The autoparsylation activity was detectable directly via the increase in HTRF signal.
(§3) The autoparsylation assay is performed as 384-well HTRF® (Cisbio, Codolet, France) assay format in Greiner low volume nb 384-well microtiter plates and is used for high throughput screen. 250 nM GST-tagged Tankyrase-1 (1023-1327 aa), respectively about 250 nM GST-tagged Tankyrase-2 (873-1166 aa) and 5 μM bio-NAD (Biolog, Life science Inst., Bremen, Germany) as co-substrate are incubated in a total volume of 5 μl (50 mM HEPES, 4 mM Mg-chloride, 0.05% Pluronic F-68, 1.4 mM DTT, 0.5% DMSO, pH 7.7) in the absence or presence of the test compound (10 dilution concentrations) for 90 min at 30° C. The reaction is stopped by the addition of 1 μl 50 mM EDTA solution. 2 μl of the detection solution (1.6 μM SA-Xlent® (Cisbio, Codolet, France), 7.4 nM Anti-GST-K® (Eu-labelled anti-GST, Cisbio, Codolet, France) in 50 mM HEPES, 800 mM KF, 0.1% BSA, 20 mM EDTA, 0.1% CHAPS, pH 7.0) are added. After 1 h incubation at room temperature the HTRF is measured with an Envision multimode reader (Perkin Elmer LAS Germany GmbH) at excitation wavelength 340 nm (laser mode) and emission wavelengths 615 nm and 665 nm. The ratio of the emission signals is determined. The full value used is the inhibitor-free reaction. The pharmacological zero value used is XAV-939 (Tocris) in a final concentration of 5 μM. The inhibitory values (IC50) are determined using either the program Symyx Assay Explorer® or Condosseo® from GeneData.

[2] = target: T2, GST-tagged Tnks-1 (1023-1327 aa) (Homo sapiens, UniProt O95271); test: TNKS1 activity ELISA (autoparsylation assay); format: biochemical
T2 construct: GST-tagged Tnks-1 (1023-1327 aa, prepared in-house); made in house
Method: (§4) Description of the TNKS1 and TNKS2 ELISA Assay
(§5) Biochemical Activity Testing of TNKS 1 and 2: Activity ELISA (Autoparsylation Assay)
(§6) For analysis of autoparsylation activity of TNKS 1 and 2 an activity ELISA is performed: In the first step GST tagged TNKS is captured on a Glutathione coated plate. Then the activity assay with biotinylated NAD is performed in the absence/presence of the compounds. During the enzymatic reaction GST tagged TNKS transfers biotinylated ADP-ribose to itself from biotinylated NAD as co-substrate. For the detection streptavidin-HRP conjugate is added that binds to the biotinylated TNKS and is thereby captured to the plates. The amount of biotinylated resp. autoparsylated TNKS is detected with a luminescence substrate for HRP. The level of the luminescence signal correlates directly with the amount of autoparsylated TNKS and therefore with activity of TNKS.
(§7) The activity ELISA is performed in 384 well Glutathione coated microtiter plates (Express capture Glutathione coated plate, Biocat, Heidelberg, Germany). The plates are pre-equilibrated with PBS. Then the plates are incubated with 50 μl 20 ng/well GST-tagged Tnks-1 (1023-1327 aa, prepared in-house), respectively GST-tagged Tnks-2 (873-1166 aa, prepared in-house) in assay buffer (50 mM HEPES, 4 mM Mg-chloride, 0.05% Pluronic F-68, 2 mM DTT, pH 7.7) overnight at 4° C. The plates are washed 3 times with PBS-Tween-20. The wells are blocked by incubation at room temperature for 20 minutes with 50 μl blocking buffer (PBS, 0.05% Tween-20, 0.5% BSA). Afterwards the plates are washed 3 times with PBS-Tween-20. The enzymatic reaction is performed in 50 μl reaction solution (50 mM HEPES, 4 mM Mg-chloride, 0.05% Pluronic F-68, 1.4 mM DTT, 0.5% DMSO, pH 7.7) with 10 μM bio-NAD (Biolog, Life science Inst., Bremen, Germany) as co-substrate in the absence or presence of the test compound (10 dilution concentrations) for 1 hour at 30° C. The reaction is stopped by 3 times washing with PBS-Tween-20. For the detection 50 μl of 20 ng/μl Streptavidin, HRP conjugate (MoBiTec, Göttingen, Germany) in PBS/0.05% Tween-20/0.01% BSA are added and the plates are incubated for 30 minutes at room temperature. After three times washing with PBS-Tween-20 50 μl of SuperSignal ELISA Femto Maximum sensitivity substrate solution (ThermoFisherScientific (Pierce), Bonn, Germany) are added. Following a 1 minute incubation at room temperature luminescence signals are measured with an Envision multimode reader (Perkin Elmer LAS Germany GmbH) at 700 nm. The full value used is the inhibitor-free reaction. The pharmacological zero value used is XAV-939 (Tocris) in a final concentration of 5 μM. The inhibitory values (1050) are determined using either the program Symyx Assay Explorer® or Condosseo® from GeneData.

tankyrase 1/2 = test: Cellular inhibition of Tankyrase: increase of Axin2 level in DLD1 cells (Luminex); format: cell-based; conditions: 24 hours, read-out: EC50 tankyrase 1/2 (cell assay)
Method: Measurement of Cellular Inhibition of Tankyrase
Since Tankyrases have been described to modulate cellular level of Axin2 (Huang et al., 2009; Nature) the increase of Axin2 level is used as read-out for determination of cellular inhibition of Tankyrases in a Luminex based assay.
Cells of the colon carcinoma cell line DLD1 are plated in 96 well plates with 1.5×10^4 cells per well. Next day, cells are treated with a serial dilution of test compound in seven steps as triplicates with a final DMSO concentration of 0.3%. After 24 hours, cells are lysed in lysis buffer (20 mM Tris/HCl pH 8.0, 150 mM NaCl, 1% NP40, 10% Glycerol) and lysates are cleared by centrifugation through a 96 well filter plate (0.65 μm). Axin2 protein is isolated from cell lysates by incubation with a monoclonal anti-Axin2 antibody (R&D Systems #MAB6078) that is bound to fluorescent carboxybeads. Then, bound Axin2 is specifically detected with a polyclonal anti-Axin2 antibody (Cell Signaling #2151) and an appropriate PE-fluorescent secondary antibody. The amount of isolated Axin2 protein is determined in a Luminex^200 machine (Luminex Corporation) according to the manufacturer's instruction by counting 100 events per well. Inhibition of Tankyrase by test compounds results in higher levels of Axin2 which directly correlates with an increase of detectable fluorescence. As controls cells are treated with solvent alone (neutral control) and with a Tankyrase reference inhibitor IWR-2 (3E-06 M) which refers as control for maximum increase of Axin2. For analysis, the obtained data are normalized against the untreated solvent control and fitted for determination of the EC50 values using the Assay Explorer software (Accelrys).

[3] = target: T3, GST-tagged Tnks-2 (873-1166 aa) (Homo sapiens, UniProt Q9H2K2); test: TNKS2 activity ELISA (autoparsylation assay); format: biochemical
T3 construct: GST-tagged Tnks-2 (873-1166 aa, prepared in-house); made in house
Method: as §4, §5, §6, §7

[4] = target: T4, GST-tagged Tankyrase-2 (873-1166 aa) (Homo sapiens, UniProt Q9H2K2); test: Tankyrase 2 autoparsylation assay (HTRF enzyme assay); format: biochemical
T4 construct: GST-tagged Tankyrase-2 (873-1166 aa)
Method: as §1, §2, §3

His-tagged Parp-1 = target: T5, His-tagged Parp-1 (Homo sapiens, UniProt P09874); test: PARP-1 autoparsylation assay (HTRF); format: biochemical; conditions: PARP-1 autoparsylation HTRF assay
T5 construct: purchased Enzo Life Sciences GmbH
Description: Description of the PARP1 Assay
Biochemical Activity Testing of PARP-1: Autoparsylation Assay
The autoparsylation assay is run in two steps: the enzymatic reaction in which
His-tagged Parp-1 transfers biotinylated ADP-ribose/ADP-ribose to itself from biotinylated NAD/NAD as co-substrate and the detection reaction where a time resolved FRET between cryptate labelled anti-His antibody bound to the His tag of the enzyme and Xlent® labelled-streptavidin bound the biotin-parsylation residue is analysed. The autoparsylation activity is detectable directly via the increase in HTRF signal.
The autoparsylation assay is performed as 384-well HTRF® (Cisbio, Codolet, France) assay format in Greiner low volume nb 384-well microtiter plates. 35 nM His-tagged Parp-1 (human, recombinant, Enzo Life Sciences GmbH, Lörrach, Germany) and a mixture of 125 nM bio-NAD (Biolog, Life science Inst., Bremen, Germany) and 800 nM NAD as co-substrate are incubated in a total volume of 6 μl (100 mM Tris/HCl, 4 mM Mg-chloride, 0.01% IGEPAL® CA630, 1 mM DTT, 0.5% DMSO, pH 8, 13 ng/μl activated DNA (BPS Bioscience, San Diego, US)) in the absence or presence of the test compound (10 dilution concentrations) for 150 min at 23° C. The reaction is stopped by the addition of 4 μl of the Stop/detection solution (70 nM SA-Xlent® (Cisbio, Codolet, France), 2.5 nM Anti-His-K® (Eu-labelled anti-His, Cisbio, Codolet, France) in 50 mM HEPES, 400 mM KF, 0.1% BSA, 20 mM EDTA, pH 7.0). After 1 h incubation at room temperature the HTRF is measured with an Envision multimode reader (Perkin Elmer LAS Germany GmbH) at excitation wavelength 340 nm (laser mode) and emission wavelengths 615 nm and 665 nm. The ratio of the emission signals is determined. The full value used is the inhibitor-free reaction. The pharmacological zero value used is Olaparib (LClabs, Woburn, US) in a final concentration of 1 μM. The inhibitory values (IC50) are determined using either the program Symyx Assay Explorer® or Condosseo® from GeneData.

T5 sequence (P09874 whole entry): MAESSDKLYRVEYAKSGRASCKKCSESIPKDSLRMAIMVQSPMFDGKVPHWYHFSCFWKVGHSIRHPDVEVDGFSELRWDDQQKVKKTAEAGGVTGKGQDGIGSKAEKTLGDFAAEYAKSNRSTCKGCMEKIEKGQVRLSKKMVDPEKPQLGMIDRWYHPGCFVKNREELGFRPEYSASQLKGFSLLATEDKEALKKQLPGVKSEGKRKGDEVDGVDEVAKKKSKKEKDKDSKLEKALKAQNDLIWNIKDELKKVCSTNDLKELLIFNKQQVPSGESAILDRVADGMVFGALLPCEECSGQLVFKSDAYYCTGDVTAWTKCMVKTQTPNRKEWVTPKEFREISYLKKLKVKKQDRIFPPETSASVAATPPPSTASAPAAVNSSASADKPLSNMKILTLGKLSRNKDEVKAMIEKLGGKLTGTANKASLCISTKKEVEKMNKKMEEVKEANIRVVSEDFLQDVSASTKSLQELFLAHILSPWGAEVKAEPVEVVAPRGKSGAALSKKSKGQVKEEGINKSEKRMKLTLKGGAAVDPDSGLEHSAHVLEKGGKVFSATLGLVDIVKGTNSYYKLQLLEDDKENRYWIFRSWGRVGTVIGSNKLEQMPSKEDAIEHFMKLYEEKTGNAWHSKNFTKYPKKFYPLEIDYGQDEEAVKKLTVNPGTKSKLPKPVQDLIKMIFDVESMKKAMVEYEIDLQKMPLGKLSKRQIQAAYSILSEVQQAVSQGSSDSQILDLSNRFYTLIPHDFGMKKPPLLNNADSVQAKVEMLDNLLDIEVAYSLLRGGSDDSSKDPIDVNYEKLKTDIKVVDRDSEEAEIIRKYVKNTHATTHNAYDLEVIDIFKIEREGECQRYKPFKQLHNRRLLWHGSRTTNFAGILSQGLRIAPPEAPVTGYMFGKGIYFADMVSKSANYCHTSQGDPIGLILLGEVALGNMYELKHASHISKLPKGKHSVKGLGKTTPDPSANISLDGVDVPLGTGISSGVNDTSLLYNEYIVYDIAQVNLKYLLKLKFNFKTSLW
T1 sequence (O95271 1023-1327): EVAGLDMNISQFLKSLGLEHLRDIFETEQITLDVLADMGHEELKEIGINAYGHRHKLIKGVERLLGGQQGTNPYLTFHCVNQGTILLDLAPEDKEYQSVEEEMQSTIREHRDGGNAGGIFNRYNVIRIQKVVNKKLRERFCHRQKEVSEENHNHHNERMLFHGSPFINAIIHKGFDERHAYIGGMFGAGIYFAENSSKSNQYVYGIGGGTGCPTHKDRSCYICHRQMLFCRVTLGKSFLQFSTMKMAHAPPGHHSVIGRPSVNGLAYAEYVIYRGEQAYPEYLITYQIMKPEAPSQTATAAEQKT
T2 sequence (O95271 1023-1327): as above
T4 sequence (Q9H2K2 873-1166): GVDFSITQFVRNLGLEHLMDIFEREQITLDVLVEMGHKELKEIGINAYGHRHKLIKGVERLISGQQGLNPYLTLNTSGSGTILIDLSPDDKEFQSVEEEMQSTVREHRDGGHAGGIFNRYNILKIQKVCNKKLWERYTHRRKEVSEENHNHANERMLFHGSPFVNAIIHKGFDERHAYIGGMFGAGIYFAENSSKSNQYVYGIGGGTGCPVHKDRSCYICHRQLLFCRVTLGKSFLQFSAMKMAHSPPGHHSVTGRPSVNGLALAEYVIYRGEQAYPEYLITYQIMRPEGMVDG
T3 sequence (Q9H2K2 873-1166): as above

IC50 (His-tagged Parp-1) [nM]	SMILES	IC50 [1] [nM]	IC50 [2] [nM]	EC50 (tankyrase 1/2) [nM]	IC50 [3] [nM]	IC50 [4] [nM]
	CC(C)(C)c1ccc(-c2cn3cc(C#N)cc3c(=O)[nH]2)cc1 [Compound A92, 3-(4-tert-butyl-phenyl)-1-oxo-1,2-dihydro-pyrrolo[1,2-a]pyrazine-7-carbonitrile]	< 300	< 300	3000 to 50000	< 300	300 to 3000
300 to 3000	Cc1cc2c(=O)[nH]c(-c3cnn(C(C)(C)C)c3)cn2c1 [Compound A57, 3-(1-tert-butyl-1H-pyrazol-4-yl)-7-methyl-2H-pyrrolo[1,2-a]pyrazin-1-one]	300 to 3000	< 300		300 to 3000	300 to 3000
< 300	CC(C)(O)c1ccc(-c2cn3c(F)c(F)cc3c(=O)[nH]2)cc1 [Compound A83, 6,7-difluoro-3-[4-(1-hydroxy-1-methyl-ethyl)-phenyl]-2H-pyrrolo[1,2-a]pyrazin-1-one]		< 300		< 300	
	Cc1ccc2c(=O)[nH]c(-c3ccc(C(C)(C)O)cc3)cn12 [Compound A95]			< 300	< 300	
	CC(C)(C)c1ccc(-c2cn3nc(CO)cc3c(=O)[nH]2)cc1 [Compound A18, 6-(4-tert-butyl-phenyl)-2-hydroxymethyl-5H-pyrazolo[1,5-a]pyrazin-4-one]	< 300	< 300	300 to 3000	< 300	300 to 3000
	Cc1cc2c(=O)[nH]c(-c3ccc(N4CCCC4)cc3)cn2n1 [Compound A37, 2-methyl-6-(4-pyrrolidin-1-yl-phenyl)-5H-pyrazolo[1,5-a]pyrazin-4-one]	< 300	< 300	300 to 3000		300 to 3000
	O=c1[nH]c(-c2ccc(C3(O)COC3)cc2)cn2cccc12 [Compound A110]	< 300	< 300	300 to 3000	< 300	300 to 3000
	Cc1cc2c(=O)[nH]c(-c3ccc(C(C)(C)C)cc3)cn2c1 [Compound A38, 3-(4-tert-butyl-phenyl)-7-methyl-2H-pyrrolo[1,2-a]pyrazin-1-one]		< 300	< 300	< 300	
	CN1CCC(c2ccc(-c3cn4cc(F)cc4c(=O)[nH]3)cc2)CC1 [Compound A81, 7-fluoro-3-[4-(1-methyl-piperidin-4-yl)-phenyl]-2H-pyrrolo[1,2-a]pyrazin-1-one]	< 300	< 300	300 to 3000	< 300	300 to 3000
300 to 3000	CC(C)(O)c1ccc(-c2cn3c(F)ccc3c(=O)[nH]2)cc1 [Compound A84, 6-fluoro-3-[4-(1-hydroxy-1-methyl-ethyl)-phenyl]-2H-pyrrolo[1,2-a]pyrazin-1-one]		< 300		< 300	
300 to 3000	O=c1[nH]c(-c2ccc(C3(O)CCCC3)cc2)cn2cc(F)cc12 [Compound A85, 7-fluoro-3-[4-(1-hydroxy-cyclopentyl)-phenyl]-2H-pyrrolo[1,2-a]pyrazin-1-one]		< 300		< 300	
	CC(C)(C)c1ccc(-c2cn3nccc3c(=O)[nH]2)cc1 [Compound A15, 6-(4-tert-butyl-phenyl)-5H-pyrazolo[1,5-a]pyrazin-4-one]	< 300	< 300	< 300	< 300	< 300
